The subject of data set [1] is A549 cells. Description: EGF assay, A549 cells transfected with oligonucleotide.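 Further: values as percent of saline control.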 It counts as cell-based, human. Particulars: A549, 48 hours after transfection. On the procedure:
(§1) A549 cells (ATCC CCL-185) were cultivated according to the manufacturer's instructions in A549 medium [F-12K Nut Mix (Gibco, 21127-022), 1% penicillin/streptomycin (Gibco: 15140-122), 10% FBS (Gibco 16000-044)].
(§2) Prior to treatment with oligonucleotides the A549 cells were seeded in 96 well plates at 3′000 cells per well in A549 regular medium and grown until 60% confluence. […]
(§3) A549 were cultivated as described in the “Materials and methods” section. At after at 50-60% confluence the oligonucleotides were transfected into the cells using 0.5 μl Lipofectamin (Invitrogen, 11668-019) in 25 μl OptiMEM® (GIBCO 31985062) and 1 ng or 10 ng oligonucleotide in the same volume OptiMEM. The cells were incubated over night at 37° C. The medium was changed using A459 regular medium+10 ng/ml EGF. 48 hours after transfection the medium was collected for EGF measurements and the cells were harvested for ATP measurements.

For data set [2], the system named is Primary human hepatocytes. Description: EGF assay, culture media of primary human hepatocytes.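 Further: values as percent of saline vehicle control.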 Format: cell-based. Particulars: 10 ng/ml EGF in medium. On the procedure: Cryopreserved human hepatocytes were suspended in William's Medium E (WME) without phenol red (Sigma W-1878) supplemented with 10% fetal calf serum, penicillin (100 U/ml), streptomycin (0.1 mg/ml) at a density of approx. 1×10^6 cells/ml and seeded into collagen-coated 96-well plates (Becton Dickinson AG, Allschwil, Switzerland) at a density of 0.4×10^5 cells/well. Cells were pre-cultured for 3 to 4 h allowing for attachment to cell culture plates before start of treatment with oligonucleotides.
Before oligonucleotide treatment the seeding medium was replaced by 90 μl of serum free WME.
The total volume of each well was 100 μl. PBS served as vehicle control.
Human primary hepatocytes were cultivated as described in the “Materials and methods” section with addition of 10 ng/ml of EGF to the medium. At confluence the cells were treated with oligonucleotide as described in the “Materials and methods” section, in concentrations of 10 or 100 μM.
The medium was obtained at day 3, and the EGF level was measured according to the assay described in the “Materials and methods” section.

Data set [3] deals with A549 cells. As to the kind of experiment: Intracellular ATP assay, A549 cells transfected with oligonucleotide.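 Further: ATP as percent of saline control.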 It counts as cell-based, human. Particulars: A549, 48 hours after transfection. The procedure:
as §1, §2
Each sample was tested in triplicate.
as §3

For data set [4], the system named is PCSK9 mRNA. As to the kind of experiment: Target knock down (PCSK9 mRNA levels) in PTEC-TERT1 cells. Particulars: normalized to PPIB. Format: cell-based, human. On the procedure:
For assessment of the target knock down (PCSK9 mRNA levels) total mRNA was extracted from the cells adding 100 μl of 1× RNA lysis mixture (QuantiGene® Sample Processing Kit, QS0101) directly into the wells according to the manufacturer's instructions. RNA lysis mixtures were kept at −80° C. until analysis. For gene expression analysis, 20 μl of lysates were mixed with an mRNA-capture magnetic beads sets (Panomics QuantiGene® Plex Set catalog #12697), incubated overnight, processed for branched DNA amplification and analyzed according to the manufacturer's instructions (Panomics QuantiGene® Plex Assay kit, QP1015). The PPIB probe was used as housekeeping gene for normalization. Average Fluoresence Intensity (FI) and standard deviation of 3 biological replicates were calculated and normalized on vehicle control. The results are shown in table 11, and represent the average of three identical treatments.

Data set [5] has as its system Wistar Han Crl:WI(Han) male rats. As to the kind of experiment: In vivo nephrotoxicity in rats. On the procedure: Purpose bred Wistar Han Crl:WI(Han) male rats obtained from Charles River Laboratories at 7 to 8 weeks of age were divided into groups of 4 (table 1, exp. A) or 8 (table 1, exp. B) based on body weight and acclimatized for at least 5 days before dosing. The animals were housed under standard environmental conditions ([…], relative humidity 50±20%, a light/dark cycle 12 h/12 h, pelleted food and water ad libitum), were offered enriched environment in an AAALAC accredited facility and were regularly and carefully monitored. All procedures were in accordance with the respective local regulations and according to the animal permissions granted by the Institutional Animal Care and Use Committee. Test compounds were formulated in isotonic sterile saline, sterile filtered (0.22 μm), and dosed at 40 mg/kg on days 1 and 8 (2.5 ml/kg) in the intrascapular region. Control group animals received saline as vehicle control. On day 15 animals were orally administered tap water (10 ml/kg), and urine was collected on ice for 6 hours in metabolic cages. […] On day 15 the rats were sacrificed by an intraperitoneal injection of pentobarbital and exsanguinated. Kidney cortex samples were collected and fixed by immersion in 10% neutral buffered formalin, embedded in paraffin, sectioned to 5 μm and stained with hematoxylin and eosin (H&). The H&E sections were then scanned at 20× magnification using an Aperio ScanScope AT™ (Leica Biosystems) scanner and pictures were then captured via ImageScope™ software from the scanned images. One or more of the following parameters were assessed kidney weight, serum creatinine, urine protein, KIM-1 protein in urine, KIM-1 mRNA, kidney degeneration/regeneration and relative tubulotoxicity grade.

The subject of data set [6] is PTEC-TERT1 cells. Description: EGF assay, supernatant of PTEC-TERT1 cells.
Description: (§4) Prior to treatment with oligonucleotides the PTEC-TERT1 were seeded into collagen I-coated 96-well plates (Corning, 356407) at a density of 40 000 and 20 000 cells/well respectively in PTEC medium and grown until confluence.
(§5) Oligonucleotides were dissolved in PBS and added to the cell culture at the given concentration, such as 10, 30 or 100 μM. The total volume of each well was 100 μl. PBS served as vehicle control.
(§6) When extra cellular markers, like EGF and KIM-1, were analyzed following the oligonucleotide treatment the medium was collected and stored at −20° C. until further analysis. […] The collected medium was stored at −20° C.
(§7) For analysis of human EGF, cell supernatants were thawed on ice, diluted 1:2 and 1:10 in sample dilution buffer (BioRad catalog # M60-009RDPD) and analyzed by Luminex®-based ELISA using human EGF beads (Bio-Plex Pro™ Human Cancer Biomarker Panel 2 EGF Set#171BC603M), or followed by analysis using the Bio-Plex® 200 Systems (BioRad) according to the manufacturer's instructions. Data are reported as mean concentrations and standard deviations of triplicate wells.
Data set [7] concerns PTEC-TERT1 cells.
Description: as §4, §5, §6
For analysis of human KIM-1, cell supernatants were thawed on ice, diluted 1:2 and 1:10 in sample dilution buffer (BioRad catalog # M60-009RDPD) and analyzed by Luminex®-based ELISA using human KIM-1 beads (Human Kidney Injury panel 4, Millipore HKI4MAG-99K-KIM1) followed by analysis using the Bio-Plex® 200 Systems (BioRad) according to the manufacturer's instructions. Data are reported as mean concentrations and standard deviations of triplicate wells. An increase of KIM-1 levels above 200% was considered as predictive for nephrotoxicity.
The subject of data set [8] is PTEC-TERT1 cells. The source holds these as a separate data set.
Description: as §4, §5, §6, §7
Data set [9] has as its system Human primary proximal tubule epithelial cells (PTEC). As to the kind of experiment: EGF assay, supernatant of primary PTEC cells.
Description: Prior to treatment with oligonucleotides the primary PTEC cells were seeded into collagen I-coated 96-well plates (Corning, 356407) at a density of 40 000 and 20 000 cells/well respectively in PTEC medium and grown until confluence.
as §5, §6
For analysis of human EGF, cell supernatants were thawed on ice, diluted 1:2 and 1:10 in sample dilution buffer (BioRad catalog # M60-009RDPD) and analyzed by Luminex®-based ELISA using human EGF beads (Bio-Plex Pro™ Human Cancer Biomarker Panel 2 EGF Set#171BC603M), or followed by analysis using the Bio-Plex® 200 Systems (BioRad) according to the manufacturer's instructions. Data are reported as mean concentrations and standard deviations of triplicate wells. An increase of EGF levels above 200% was considered as predictive for nephrotoxicity.
The test system of data set [10] is PTEC-TERT1 cells. Description: Morphological changes of PTEC-TERT1 cells upon oligonucleotide treatment. It counts as cell-based, human. Particulars: 100 μM oligonucleotide, 7 days, bright field microscopy, vs saline. On the procedure: PTEC-TERT1 cells were cultures as described in the “Materials and methods” section. To mimic the physiological exposure of renal tubules to circulating naked oligonucleotide (i.e. without assistance of delivery technology, herein termed gymnosis or gymnotic delivery), confluent monolayers of PTEC-TERT1 cells were exposed to an aqueous solution of 100 μM oligonucleotide. The medium was replaced every three days including 100 μM fresh oligonucleotide in the fresh medium.
After 7 days of treatment the morphological alterations in the treated cell cultures were investigated under bright field microscopy.

Setting [11] is: PTEC-TERT1, Day 3, 11 μM (Table 3).
The mark [12] stands for this setting: PTEC-TERT1, Day 3, 33 μM (Table 3).
Where [13] appears, read: PTEC-TERT1, Day 3, 100 μM (Table 3).
Setting [14] is: PTEC-TERT1, Day 7, 11 μM (Table 3).
[15] abbreviates: PTEC-TERT1, Day 7, 33 μM (Table 3).
[16] abbreviates: PTEC-TERT1, Day 7, 100 μM (Table 3).
The mark [17] stands for this setting: PTEC-TERT1, Day 10, 11 μM (Table 3).
Where [18] appears, read: PTEC-TERT1, Day 10, 33 μM (Table 3).
[19] abbreviates: PTEC-TERT1, Day 10, 100 μM (Table 3).

Here are results for three substances from patent US11105794B2, “In vitro nephrotoxicity screening assay” (Hoffmann-La Roche Inc., priority 2016, dated 2021).

l = locked nucleic acid (LNA); d = 2'-deoxy (DNA)

For the substance “AATgctacaaaaCCCA (antisense AATGCTACAAAACCCA; sugars from the 5' end l3 d9 l4, backbone and methylation of C not given here) [Compound 2-1]”, the EGF in data set [1] (1 ng oligonucleotide) turned out to be 80 % saline; in [1] (10 ng oligonucleotide) it was 161 % saline; in [2] (day 3, 10 μM) it was 122 % saline; in data set [2] (day 3, 100 μM), 211 % saline; in data set [6] (setting [11]), 135 % saline; in data set [6] (setting [12]), 192 % saline. Moreover, the EGF in [6] (setting [13]) stood at 172 % saline; in data set [6] (setting [14]), 69 % saline; in [6] (setting [15]) it was 88 % saline; in [6] (setting [16]) it was 117 % saline; in [6] (setting [17]), 47 % saline; in data set [6] (setting [18]) it was 63 % saline. Moreover, the EGF in [6] (setting [19]) is given as 154 % saline. Besides, the ATP is 96 % saline in data set [3] (1 ng oligonucleotide) and 59 % saline in data set [3] (10 ng oligonucleotide). For the same substance, the “PCSK9 mRNA” value in [4] (PTEC-TERT1, EGF 0 ng/ml in medium) is given as 1.73 % of saline; in data set [4] (PTEC-TERT1, EGF 10 ng/ml in medium), 1.02 % of saline. For the same substance, the “In vivo nephrotoxicity / in vivo grade of toxicity” value in [5] (40 mg/kg on days 1 and 8, assessed day 15, 40 mg/kg) is “low and Low”.
On to “Compound 20-1: antisense oligonucleotide comprising 2′-O-methoxyethyl-RNA (MOE) modifications, targeting sodium-glucose co-transporter 2 (SGLT2), SEQ ID NO 20 (GGCATGAGCTTC; MOE modifications, pattern not given here)”, for which the “predictive KIM-1 elevation” value in [7] is recorded as “observed”. Also, the “In vivo nephrotoxicity / in vivo grade of toxicity” value in data set [5] (40 mg/kg on days 1 and 8, assessed day 15) was “low/medium”. In addition, in data set [8], the “prediction of in vivo nephrotoxicity with EGF as biomarker” value is “could be predicted”.
For “CGTcagtatgcgAATc (CGTCAGTATGCGAATC; chemistry not given here) [Compound 1-1]”, the EGF in data set [1] (1 ng oligonucleotide) came to 69 % saline; in [1] (10 ng oligonucleotide), 75 % saline; in [2] (day 3, 10 μM), 123 % saline; in data set [2] (day 3, 100 μM) it was 159 % saline; in data set [9] (Day 3, 3 μM) it was 95 % saline; in [9] (Day 3, 10 μM), 99 % saline. Moreover, the EGF is reported as 112 % saline in data set [9] (Day 3, 30 μM); 120 % saline in data set [9] (Day 3, 100 μM); 62 % saline in [9] (Day 6, 3 μM); 71 % saline in data set [9] (Day 6, 10 μM); 77 % saline in [9] (Day 6, 30 μM); 98 % saline in data set [9] (Day 6, 100 μM). Further, the EGF in data set [6] (PTEC-TERT1, Day 3, 3 μM (Table 2)) is on record as 88 % saline; in data set [6] (PTEC-TERT1, Day 3, 10 μM (Table 2)) it was 93 % saline; in [6] (setting [11]), 145 % saline; in [6] (PTEC-TERT1, Day 3, 30 μM (Table 2)) it was 108 % saline; in [6] (setting [12]), 214 % saline; in [6] (PTEC-TERT1, Day 3, 100 μM (Table 2)) it was 119 % saline. Also, the EGF is listed as 137 % saline in data set [6] (setting [13]); 124 % saline in [6] (PTEC-TERT1, Day 6, 3 μM (Table 2)); 152 % saline in data set [6] (PTEC-TERT1, Day 6, 10 μM (Table 2)); 180 % saline in data set [6] (PTEC-TERT1, Day 6, 30 μM (Table 2)); 172 % saline in [6] (PTEC-TERT1, Day 6, 100 μM (Table 2)); 94 % saline in data set [6] (setting [14]). Also, the EGF in data set [6] (setting [15]) was determined as 122 % saline; in [6] (setting [16]), 135 % saline; in data set [6] (setting [17]), 32 % saline; in data set [6] (setting [18]), 41 % saline; in data set [6] (setting [19]), 59 % saline. Further, the ATP in data set [3] (1 ng oligonucleotide) is listed as 89 % saline; in data set [3] (10 ng oligonucleotide), 100 % saline. Moreover, the morphological changes result in data set [10] is “did not show any morphological changes”.
